Results: patent US9606120B2, “Interfering peptides and method for detecting microorganisms” (BIOMÉRIEUX, priority 2012, dated 2017)

Tested on: antibodies directed against the HCV Core, NS3 and NS4 proteins
Experiment: Vidas anti-HCV antibody immunoenzymatic test (Operating Mode 1) carried out with interfering peptide added
Parameters: species or system human; key to Index: signal / standard S1 value; index ≥1 positive, <1 negative
Settings: for Index: pos indices ≧1
Procedure: The disposable tip (SPR®) acts both as a solid phase and as a pipetting system. The surface of the tip is coated with antigens for the detection of antibodies directed against the HCV Core, NS3 and NS4 proteins. In a first step, the sample is diluted, and then suctioned up and down inside the tip. The anti-HCV antibodies present in the sample will bind to the antigens present inside the tip. Washing steps remove the unbound compounds. During the second step, (mouse) anti-human immunoglobulin (anti-IgG) monoclonal IgGs in Fab′ form, conjugated to recombinant alkaline phosphatase, are suctioned up and down inside the tip and will bind to the anti-HCV human Igs from the sample tested, bound to the antigens of the solid phase. Washing steps again remove the unbound compounds. […] The value of the fluorescence signal is proportional to the concentration of the antibody present in the sample. At the end of the test, the results are calculated automatically in the form of an index by the instrument, by dividing the value obtained by the value of the standard S1 brought back to 1 (value stored in the instrument). Thus, a sample of which the index is greater than or equal to 1 is considered to be positive by the immunoenzymatic test (presence of anti-HCV antibodies) and a sample of which the index is less than 1 is considered to be negative (absence of anti-HCV antibodies). In the paragraphs which follow, this HCV-antibody assay procedure will be referred to as “Operating Mode 1”, which corresponds to the assaying of anti-HCV antibodies without interfering peptide.
Several hundred serum samples, negative for HCV infection and originating from the Rhône-Alpes “Centres de Transfusion Sanguine” [Blood Banks], were screened in order to identify the samples which posed an interference problem. To do this, the samples were assayed according to Operating Mode 1 using the Vidas automated device. Only the sera that were positive according to Operating Mode 1 (index ≧1) were selected.
Such a difference between the result of Operating Mode 1 and that of the negative status established by the “Centres de Transfusion Sanguine” [Blood Banks] makes it possible to select the false-positive sera posing an interference problem.
Table 1 gives, for seven sera posing an interference problem and for the positive control C1, the results of assays carried out according to “Operating Mode 1” with or without the presence of the peptide V7E (SEQ ID No 2) or of the peptide Y7E (SEQ ID No 1). These peptides were added at a concentration of 5 μg/ml during the first step of the immunoenzymatic test protocol which corresponds to the dilution of the sample to be tested and the incubation thereof with the antigens present on the solid phase.
Likewise, table 2 gives, for two other sera posing an interference problem and for the positive control, the results of assays carried out according to Operating Mode 1 of the anti-HCV antibody detection protocol, with or without the presence of the peptide E8E (SEQ ID No 4), of the peptide A8E (SEQ ID No 3), or else of the peptide A6M (SEQ ID No 9). These peptides were added at a concentration of 1 μg/ml during the first step of the immunoenzymatic test protocol, which corresponds to the dilution of the sample to be tested, and the incubation thereof with the antigens present on the solid phase.

[1] = false-positive serum 295 (sample with interference), peptide 1 μg/ml in first step
[2] = false-positive serum F25 (sample with interference), peptide 1 μg/ml in first step
[3] = positive control C1 (commercial serum pool), peptide 1 μg/ml in first step
[4] = two sera posing an interference problem, peptide 1 μg/ml
[5] = false-positive serum 175 1811 (sample with interference), peptide 5 μg/ml in first step
[6] = false-positive serum 284 2408 (sample with interference), peptide 5 μg/ml in first step
[7] = false-positive serum 498 (sample with interference), peptide 5 μg/ml in first step
[8] = false-positive serum 801 1409 (sample with interference), peptide 5 μg/ml in first step
[9] = false-positive serum F53 3009 (sample with interference), peptide 5 μg/ml in first step
[10] = false-positive serum H48 (sample with interference), peptide 5 μg/ml in first step
[11] = false-positive serum M43 (sample with interference), peptide 5 μg/ml in first step
[12] = positive control C1 (commercial serum pool), peptide 5 μg/ml in first step
[13] = seven sera posing an interference problem, peptide 5 μg/ml

APYIEKGM (Streptococcus) [A6M, Streptococcus pneumoniae peptide, not according to the invention, used as a negative control, reference compound]
Index [1]: 1.04 | Index [2]: 2.90 | Index [3]: 3.05 | sera in which the interference is neutralized [4]: does not make it possible to neutralize the interference, in any of the sera

AQKRLAPYIE (Streptoccus) [A8E, amino acids 64-73 of Streptococcus pneumoniae ribosomal small subunit methyltransferase H protein]
Index [1]: 0.95 | Index [2]: 0.41 | Index [3]: 3.02 | sera in which the interference is neutralized [4]: 2/2

ECSQHLPYIE (HCV) [E8E, amino acids 53-54 of HCV NS4A fused to amino acids 1-8 of HCV NS4B]
Index [1]: 0.90 | Index [2]: 0.85 | Index [3]: 2.92 | sera in which the interference is neutralized [4]: 2/2

VSPTHYVPE (HCV) [V7E, amino acids 218-226 of the NS4B protein of HCV]
Index [5]: 0.49 | Index [6]: 1.51 | Index [7]: 0.35 | Index [8]: 1.04 | Index [9]: 0.39 | Index [10]: 1.17 | Index [11]: 0.42 | Index [12]: 3.06 | sera in which the interference is neutralized [13]: 4/7

YSPTHYVPE (staphylococcus) [Y7E]
Index [5]: 0.47 | Index [6]: 0.86 | Index [7]: 0.14 | Index [8]: 0.71 | Index [9]: 0.32 | Index [10]: 0.88 | Index [11]: 0.17 | Index [12]: 3.02 | sera in which the interference is neutralized [13]: totally neutralize the interference in all the sera
